# Experimental data as given in PubChem BioAssay AID651652 (NMMLSC, 2012).
# Activity calls are given as the source filed them.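 How the source made its calls: active means viability at the highest tested concentration below 50%; inactive means the rest.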
# How the values were obtained:
# [1] = K562 empty-vector cell viability, concentration-response, counterscreen for ABCB6 inhibitor project, CellTiter-Glo luminescence, PowderSet01 powders (AID 651652); conditions: K562 vector control viability, CellTiter-Glo, 18 h; at 100 µM (top of the series)
# [2] = tested on: K562 vector control viability, CellTiter-Glo, 18 h; assay: as above
Compound,viability [1],EC50 [2] [µM]
CC(=O)Nc1ccc(NC(=O)c2nc(S(=O)(=O)Cc3ccccc3)ncc2Cl)cc1,58% (inactive),–
CCOc1ccccc1NC(=O)c1nc(S(=O)(=O)Cc2cccc(C)c2)ncc1Cl,–,11.9
CCc1ccc(NC(=O)c2nc(S(=O)(=O)Cc3ccccc3)ncc2Cl)cc1,–,4.51
CC(=O)Nc1ccc(NC(=O)c2nc(S(=O)(=O)Cc3cccc(C)c3)ncc2Cl)cc1,51.9% (inactive),–
